Measured values: EP0042553B1, “Antitumor compositions” (Bristol-Myers Company, priority 1980, dated 1981)
Counter-ions that a name gives are not always drawn.

What was measured:
[1] = prior art statement; cited from earlier work
animal tumor systems = conditions: Cain, et al., Europ. J. Cancer 10:539-549 (1974); cited from earlier work
[2] = Compatibility with ions in aqueous solution; assay type: physicochemical; conditions: insoluble precipitates form
Experimental: The solid compositions (all three types) provided according to the present invention are reconstituted with sterile water or sterile aqueous vehicle. The preferred unit dosage forms described above may, for example, be reconstituted with one milliliter of sterile water or sterile aqueous vehicle to form relatively concentrated m-AMSA solutions or such solutions may be diluted to form more dilute (e.g. 5 mg/ml m-AMSA activity) solutions. […] Reconstitution, therefore, should be effected with vehicles substantially free of the above-mentioned ions.
Caution: Solutions of m-AMSA are incompatible with chloride, sulfate, phosphate and carbonate ions. Precipitates form.

Solubility in water = assay type: physicochemical
[3] = Stability / clarity of reconstituted aqueous solution; assay type: physicochemical
Experimental: Stability: 15 mg salt was reconstituted with 10 ml sterile water.
The product salt may be reconstituted with water to give a 5-7.5 mg/ml solution which remains clear at 17°C for at least 6 hours.
(§1) The above mixture can be rapidly (<3 min.) reconstituted with sterile water. The 50 mg/ml solution and 1, 2, 5 and 10 mg/ml dilutions remain clear for at least 24 hours at 15-20°C.
(§2) The above mixture is made according to the general procedure of Example 5.

[4] = Reconstitution time with water; assay type: physicochemical; conditions: 5, 7.5 and 10 mg/ml; at 24°C (75°F)
Experimental: Reconstituted aqueous solutions of 5, 7.5 and 10 mg/ml were readily obtained with 3 minutes shaking at 24°C (75°F). Solubility of the salt in water at room temperature is at least 15 mg/ml.
as §1, §2

SMILES: COc1cc(NS(C)(=O)=O)ccc1Nc1c2ccccc2nc2ccccc12 [m-AMSA, 4'-(9-acridinylamino)-methanesulfon-m-anisidide]
- solubility in water (in words) [1]: very limited
- antitumor activity (animal tumor systems): significant antitumor activity
- compatibility in aqueous solution with chloride, sulfate, phosphate and carbonate ions [2]: incompatible

SMILES: COc1cc(NS(C)(=O)=O)ccc1Nc1c2ccccc2nc2ccccc12.Cl [monohydrochloride]
- solubility in water (in words) [1]: insufficiently water-soluble

SMILES: COc1cc(NS(C)(=O)=O)ccc1Nc1c2ccccc2nc2ccccc12 [Preparation 9, Crystalline m-AMSA monogluconate salt]
- solubility (Solubility in water; at 50-60°C): 30 mg/mL

SMILES: COc1cc(NS(C)(=O)=O)ccc1Nc1c2ccccc2nc2ccccc12 [Preparation 4, Crystalline L(+)-Monolactate hemiacetonate of m-AMSA]
- activity loss ([3]; 15 mg salt in 10 ml sterile water, after 2 weeks storage at 45°C): < 6%
- Stability: time the solution was stable ([3]; 15 mg salt reconstituted with 10 ml sterile water): at least 24 hours

SMILES: COc1cc(NS(C)(=O)=O)ccc1Nc1c2ccccc2nc2ccccc12.CS(=O)(=O)O [monomethanesulfonate]
- solubility in water (in words) [1]: insufficiently water-soluble

SMILES: COc1cc(NS(C)(=O)=O)ccc1Nc1c2ccccc2nc2ccccc12 [Preparation 6, Crystalline DL-Monolactate acetone solvate of m-AMSA]
- solubility (Solubility in water; at room temperature): ≥ 15 mg/mL
- time solution remains clear ([3]; 5-7.5 mg/ml solution in water at 17°C): at least 6 hours
- shaking time to obtain reconstituted aqueous solutions [4]: 3 min
